From BindingDB's records for PubMed 8169832 (University of Pennsylvania, 1994)

Biological target: 5-hydroxytryptamine receptor 6 (Mus musculus, UniProt Q9R1C8)
Sequence (Q9R1C8 whole entry): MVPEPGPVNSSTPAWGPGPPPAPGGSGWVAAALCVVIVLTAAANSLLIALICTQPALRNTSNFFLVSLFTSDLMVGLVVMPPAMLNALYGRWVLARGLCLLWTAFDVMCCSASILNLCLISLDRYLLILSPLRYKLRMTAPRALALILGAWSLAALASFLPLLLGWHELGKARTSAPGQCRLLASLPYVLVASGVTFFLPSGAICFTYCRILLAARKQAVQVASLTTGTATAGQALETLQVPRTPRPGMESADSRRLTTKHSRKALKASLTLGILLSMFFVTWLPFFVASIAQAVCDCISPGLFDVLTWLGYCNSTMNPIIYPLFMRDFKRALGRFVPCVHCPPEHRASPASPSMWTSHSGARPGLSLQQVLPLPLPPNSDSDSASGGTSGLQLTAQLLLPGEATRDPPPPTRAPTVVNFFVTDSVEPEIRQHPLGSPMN

In order of falling Ki:
1. CN1CCc2cc(Cl)c(O)cc2[C@@H](c2ccccc2)C1 [SCH 23390,R(+)]  2510 nM
2. Cn1cc(CCN)c2cc(O)ccc21 [5-HT,omega-N-Me]  2000 nM
3. O=C(c1ccc(F)cc1)C1CCN(CCn2c(=O)[nH]c3ccccc3c2=O)CC1 [3-(2-{4-[(4-fluorophenyl)carbonyl]piperidin-1-yl}ethyl)-1,2,3,4-tetrahydroquinazoline-2,4-dione]  1000 nM
4. Cc1[nH]c2ccc(O)cc2c1CCN  398 nM
5. NCCc1c[nH]c2ccc(O)cc12 [[3H]-5-HT]  39.8 nM
6. CN1CCN(C2=c3ccccc3=Nc3ccc(Cl)cc3N2)CC1 [6-chloro-10-(4-methylpiperazin-1-yl)-2,9-diazatricyclo[9.4.0.0^{3,8}]pentadeca-1,3(8),4,6,10,12,14-heptaene]  31.6 nM
7. CN1CCN2c3ccccc3Cc3ccccc3[C@H]2C1 [MIANSERIN (+)]  19.9 nM
8. CSc1ccc2c(c1)C(N1CCN(C)CC1)Cc1ccccc1S2 (stereo not drawn) [methanesulfonic acid;1-methyl-4-(3-methylsulfanyl-5,6-dihydrobenzo[b][1]benzothiepin-5-yl)piperazine]  1.99 nM
